These results are taken from patent US11207301B2, “Sphingosine 1 phosphate receptor agonists for neuroprotection” (RECEPTOS LLC, priority 2017, dated 2021).

Common to all, as to type: cell-based
Experiment [1] has as its system ERK phosphorylation in primary rat astrocytes. Briefly: ERK phosphorylation in primary rat astrocytes (MSD pERK assay). The following applies: Astrocyte, 10 min, 10-minute exposure, mean of n=3. The protocol:
(§1) For the experiments using rat primary astrocytes, eight-point concentration-response curves were generated for AKT and ERK phosphorylation in primary rat astrocytes cultures in response to a 10-minute treatment with ozanimod (100 nM-46 pM), Compound 3 (10 nM-5 pM), Compound 1 (10 nM-5 pM), or FTY720-P (10 nM-5 pM). Phosphorylation of AKT and ERK was quantified using Meso Scale Discovery assay kits (MSD Mutli-Spot Phopho-AKT (Ser473) Assay Kit and MSD Multi-Spot MAP Kinase Phosphoprotein Assay Whole Cell Lysate Kit) and imaging platform. AKT and ERK phosphorylation within treated astrocytes were assessed as the mean change in signal intensity compared to DMSO vehicle and the half maximal effective concentration (EC50) was determined using non-linear regression.
(§2) Embryonic day18 (E18) rat cortices were purchased from BrainBits LLC. (Springfield, Ill.) and were cultured according to the supplier's protocol. Briefly, cortices were incubated at 37° C. for 10 minutes in activated papain solution before trituration in hibernation medium containing B27 supplement using a modified siliconized glass Pasteur pipette. The cell suspension was centrifuged at 1100×g for 1 minute at room temperature (RT). The cell pellet was then resuspended in NbAstro medium (BrainBits LLC.) and the live cell density was assessed using a cell counter. Primary cells were plated at a density of 7500 cells/cm2 in T75 tissue culture flasks coated with poly-D-lysine (PDL) in a total volume of 12 mL of NbAstro media, and incubated for 10-14 days at 37° C. 5% CO2. After 10-14 days, primary astrocytes in passage 0 (P0) that had reached confluency in the T75 flasks were detached using TrypLE detachment reagent, pelleted at 300×g, and plated into poly-d-lysine coated T225 flasks in 20 mL of NbAstro media, and incubated for another 7 days at 37° C. 5% CO2. After 7 days, primary P1 astrocytes in confluent T225 flasks were detached using TrypLE detachment reagent, pelleted at 300×g, and plated intopoly-d-lysine coated 96-well plates at 10,000 cells per well in 200 μL of NbAstro media, and incubated for 7 days at 37° C. 5% CO2. After 7 days, P2 primary astrocytes were utilized for pAKT and pERK assays.
The pERK (phosphorylated ERK)/pMAPkinase assay was performed according to the manufacturer's protocol. Briefly, MSD pERK/pMAPkinase plates were blocked for 1-2 hours by adding 150 μL of blocker A prepared in 1× Tris wash buffer. […] Following antibody incubation, plates were washed three times with 150 μL of 1× Tris wash buffer and 1× read buffer (150 μL/well) was added. Finally, the plates were read in the MSD imager platform to assess the pERK levels.
(§3) AKT and ERK phosphorylation data were analyzed by non-linear regression (GraphPad Prism, version 6) to determine the EC50 values.

The subject of experiment [2] is AKT phosphorylation in primary mouse astrocytes. Briefly: AKT phosphorylation in primary mouse cortical astrocytes (AlphaLISA SureFire Ultra). The following applies: Astrocyte, 10 min, 10-minute exposure, mean of n=3. The protocol:
(§4) For the experiments using mouse and human primary astrocytes, ten-point concentration-response curves (90 nM-4.57 pM or 30 nM-1.52 pM) were generated for AKT and/or ERK phosphorylation in primary human and mouse cortical astrocytic cultures in response to a 10-minute treatment with ozanimod, Compound 3, Compound 1, or FTY720-P. AKT and ERK phosphorylation were quantified using AlphaLISA SureFire Ultra Assay kits and the EnVision Plate Reader. AKT and ERK phosphorylation within treated astrocytes were expressed as the mean change in signal intensity compared to the dimethyl sulfoxide (DMSO) vehicle and the half maximal effective concentration (EC50) was determined using non-linear regression.
Timed pregnant (E16) C57BL/6J female mice arrive to the test facility on a weekly basis and were housed and cared for according to appropriate protocols for this model. Primary mouse cortical astrocytes are harvested from P0-P2 pups. The newly born animals were deeply anesthetized on ice, decapitated, and the brains were rapidly removed and stored in ice-cold NbAstro media (BrainBits, LLC). Cells were dissociated from freshly dissected cortices by mechanical disruption in the presence of trypsin and DNase. Cells were put into a PDL coated T75 tissue culture flask containing 16 mL NbAstro Media and incubated at 37° C. 5% CO2. Once the mouse astrocytes had reached confluency in the T75 flask, they were detached using TripLE detachment reagent, pelleted at 300×g, expanded into two T225 PDL coated tissue culture flasks containing 40 mL of NbAstro and incubated at 37° C. 5% CO2. Once the astrocytes reached confluency in the T225 flasks they were detached using TrypLE detachment reagent, pelleted at 300×g, plated into PDL coated 96-well plates at a density of 10,000 cells per well in 200 μL NbAstro and incubated at 37° C. 5% CO2. Half of the media was replenished every 3-4 days. After 5-7 days of incubation, the P2 mouse astrocyte plates were utilized for the pERK and pAKT assays.
Cell lysis and detection of pAKT were performed according to the PerkinElmer AlphaLISA SureFire Ultra pAKT1/2/3 ([…]) assay protocol. Astrocytes were lysed in the 96-well plate following a 10 minute incubation with compounds with shaking at room temperature (RT). The astrocytic lysates (10 μL/well) were transferred into a 384-well OptiPlate. As specified by the assay protocol, an acceptor bead mix and a donor bead mix (5 μL/well for each) were added to the plate under subdued light. […] The plates were read on the EnVision Plate Reader to assess the pAKT levels.
(§5) The AKT and ERK phosphorylation data, collected by a Perkin Elmer EnVision Microplate Reader, was analyzed by non-linear regression (GraphPad Prism, version 7.03) to determine the EC50 values.

Experiment [3] concerns AKT phosphorylation in primary rat astrocytes. Briefly: AKT phosphorylation in primary rat astrocytes (MSD pAKT assay). The following applies: Astrocyte, 10 min, 10-minute exposure, mean of n=4. The protocol:
as §1, §2
The pAKT (phosphorylated AKT) assay was performed according to the manufacturer's protocol. Briefly, MSD pAKT plates were blocked for 1-2 hours by adding 150 μL of blocker A prepared in 1× Tris wash buffer. […] Following antibody incubation, plates were washed three times with 150 μL of 1× Tris wash buffer and 1× read buffer (150 μL/well) was added. Finally, plates were read in the MSD imager platform to assess pAKT levels.
as §3

In experiment [4] the test system is ERK phosphorylation in primary human astrocytes. Briefly: ERK phosphorylation in primary human cortical astrocytes (AlphaLISA SureFire Ultra). The following applies: Astrocyte, 10 min, 10-minute exposure, n=3-5. How it is done: as §4
Primary human astrocytes were purchased from ScienCell Research Laboratories, Inc. and cultured according to the supplier's protocol. The astrocytes were obtained from the human cerebral cortex, cryopreserved at passage one, and delivered frozen. The frozen vials of cells were gently thawed in a 37° C. water bath. Once the contents of the vial were completely thawed, the cell solution was dispensed into a poly-L-lysine (PLL) coated T75 tissue culture flask with 16 mL of human Astrocyte Media, (ScienCell Research Laboratories, Inc.) and incubated at 37° C. 5% CO2. Once the human astrocytes had reached confluency in the T75 flask, they were detached using trypsin/EDTA 0.25%, pelleted at 300×g, split into two PLL coated T225 tissue culture flasks in 40 mL of astrocyte media, and incubated at 37° C. 5% CO2. Once the astrocytes reached confluency in the T225 flasks, they were detached using trypsin/EDTA 0.25% solution, pelleted at 300×g, plated into poly-D-lysine (PDL) coated 96-well plates at a density of 10,000 cells per well in 200 μL human Astrocyte Media, and incubated at 37° C. 5% CO2. Half of the media was replenished every 3-4 days. After 5-7 days of incubation, the P2 human astrocyte plates were utilized for the pERK and pAKT assays.
Cell lysis and detection of pERK were performed according to the PerkinElmer AlphaLISA SureFire Ultra p-ERK1/2 (Thr202/TYR 204) assay protocol. Astrocytes were lysed in the 96-well plate following a 10 minute incubation with compounds with shaking at RT. The astrocytic lysates (10 μL/well) were transferred into a 384-well OptiPlate. As specified by the assay protocol, an acceptor bead mix and a donor bead mix (5 μL/well for each) were added to the plate under subdued light. Plates were sealed with adhesive plate seals and incubated in the dark for 2 hours at RT. The plates were read on the EnVision Plate Reader to assess the pERK levels.
as §5

Take `CC(C)Oc1ccc(-c2nc(-c3cccc4c3CCC4NCC(=O)O)no2)cc1C#N` (stereo not shown) [Compound 3]: the EC50 in experiment [1] was found to be 0.11 nM; in experiment [2], 0.13 nM; in experiment [3], 0.23 nM; in experiment [4], 0.5 nM.
